# Test results published in patent publication US20040152648A1, “Pyruvate-kinase as a novel target molecule” (priority 2001, published 2004).
# Where a SMILES comes first, the peptide text is derived from it. [ ]: non-standard residue; d: D form. Nle = CCCC[C@H](N)C(=O)O
# Experiments:
# Format in all cases: cell-based
# [1] = test system: nuclear PK-M2 processing in Cos-7 cells; assay: protease inhibitor pre-treatment, electrophoretic mobility of nuclear PK-M2; conditions: Cos-7 cells pre-treated with protease inhibitor
# [2] = target: T1, pEGFP-PK-M2 (pyruvate-kinase fused to GFP) in Cos-7 cells (Homo sapiens, UniProt P14618); assay: nuclear translocation of GFP-fused pyruvate-kinase in transiently transfected Cos-7 cells; conditions: pEGFP-PK-M2, 1 mM hydrogen peroxide for 4 hours, FIG. 4
# T1 construct: producing wild type pyruvate-kinase N-terminally fused to GFP; expressed in transfected cells; host or cells: Cos-7
# T1 sequence (P14618 whole entry, the tested form may be a part): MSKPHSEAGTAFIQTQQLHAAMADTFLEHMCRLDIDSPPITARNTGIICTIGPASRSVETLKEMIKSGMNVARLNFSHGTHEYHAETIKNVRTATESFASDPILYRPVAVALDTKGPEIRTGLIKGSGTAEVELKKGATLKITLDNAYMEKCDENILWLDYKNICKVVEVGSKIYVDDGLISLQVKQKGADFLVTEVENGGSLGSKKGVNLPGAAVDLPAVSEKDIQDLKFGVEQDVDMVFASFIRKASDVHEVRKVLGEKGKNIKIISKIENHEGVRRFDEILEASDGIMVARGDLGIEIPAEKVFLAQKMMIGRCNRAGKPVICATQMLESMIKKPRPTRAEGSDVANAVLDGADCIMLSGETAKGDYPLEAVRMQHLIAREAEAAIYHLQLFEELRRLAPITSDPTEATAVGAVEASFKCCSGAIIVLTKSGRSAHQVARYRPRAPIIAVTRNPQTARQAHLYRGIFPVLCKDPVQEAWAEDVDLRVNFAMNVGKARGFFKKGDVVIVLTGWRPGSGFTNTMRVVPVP
# Source text: Nuclear translocation of the pyruvate-kinase upon different apoptotic stimuli. Cos-7 cells were transiently transfected with pEGFP-PK-M2 eukaryotic expression plasmid (producing wild type pyruvate-kinase N-terminally fused to GFP)
# Nuclear translocation of the pyruvate-kinase deletion mutants upon apoptotic stimuli. […] (Ex: 485 nm=GFP, Ex: 390=propidium-iodide)
# Cells were fixed with 1% glutaraldehyde and the localisation of GFP was detected and analysed with fluorescent microscope and InoVision confocal imaging software. Nuclei were stained with propidium-iodine (FIG. 5).
# [3] = test system: endogenous PK-M2 in Cos-7 cells; assay: subcellular localisation of endogenous PK-M2, cytosolic/nuclear fractions, Western-blot; conditions: 50 μM TT-232 or 100 μM hydrogen-peroxide, FIG. 8
# Procedure: Subcellular localisation of endogenous PK-M2 upon peroxide or UV stimulation. Cos-7 cells were untreated, treated with 50 μM TT-232 (A), 100 μM hydrogen-peroxide (B), or 120 mJ/cm^2 UV (C) and incubated for different times as indicated. Cells were separated into cytosolic (c) or nuclear (n) fractions loaded in triplicate and blotted with PK-M2 (uppest panels), Erk-2 (middle panels) or Histone H1 (lowest panels).
# In order investigate further Cos-7 cells were treated, separated into cytosolic and nuclear fractions by NP-40 lysis and analysed with polyclonal PKM2 specific antibody (Weernink et al., 1988) for endogenous PK-M2 by Western-blots. To rule out cross contamination, samples were loaded in triplicate and blotted with PK-M2, Erk-2 or Histone H1 antibodies.
compound,measurement,setting,value
Cc1ccc(S(=O)(=O)N[C@@H](Cc2ccccc2)C(=O)CCl)cc1 [TPCK],reversal of increased electrophoretic mobility of nuclear enzyme,[1],not able to revert this effect
OO [hydrogen peroxide],nuclear translocation of GFP-fused pyruvate-kinase,[2],nuclear translocation of the pyruvate-kinase occurs
same,translocation of endogenous PK-M2 into the nucleus,[3],induced the translocation of the endogenous PK-M2 into the nucleus
NCCc1ccc(S(=O)(=O)F)cc1 [AEBSF],reversal of increased electrophoretic mobility of nuclear enzyme,[1],not able to revert this effect
CCCC[C@@H](C=O)NC(=O)[C@H](CC(C)C)NC(=O)[C@H](CC(C)C)NC(C)=O [ALLN] (Ac-Leu-Leu-[Nle]-aldehyde),reversal of increased electrophoretic mobility of nuclear enzyme,[1],not able to revert this effect
